From patent publication US6737383B1, “Herbicidal oxadiazolidines” (priority 1999, dated 2004)

Key:
[1] = system: sugar beet; experiment: Test B pre/postemergence sugar beet; assay type: in vivo, Beta vulgaris; conditions: for Plant response rating, Sugarbeets: scale of 0 to 10 where 0 is no effect and 10 is complete control
Outline: (§1)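 Herbicidal effect was estimated by eye on a ten-point control scale after plants spent twelve to sixteen days in a greenhouse following soil or foliar treatment. Foliar sprays targeted plants at one to four leaves; all doses were formulated in a non-phytotoxic solvent with surfactant.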

[2] = system: soybean; experiment: Test B pre/postemergence soybean; assay type: in vivo, Glycine max; conditions: for Plant response rating, Soybean: scale of 0 to 10 where 0 is no effect and 10 is complete control
Outline: as §1

[3] = system: pigweed; experiment: Test B pre/postemergence pigweed; assay type: in vivo, Amaranthus retroflexus; conditions: for Plant response rating, Redroot pigweed: scale of 0 to 10 where 0 is no effect and 10 is complete control
Outline: as §1

[4] = system: wild oat; experiment: Test B pre/postemergence wild oat; assay type: in vivo, Avena fatua; conditions: for Plant response rating, Wild oats: scale of 0 to 10 where 0 is no effect and 10 is complete control
Outline: as §1

[5] = system: surinam grass; experiment: Test B pre/postemergence surinam grass; assay type: in vivo, Brachiaria decumbens
Outline: as §1

[6] = system: bedstraw; experiment: Test B pre/postemergence bedstraw; assay type: in vivo, Galium aparine; conditions: Postemergence
Outline: as §1

[7] = system: blackgrass; experiment: Test B pre/postemergence blackgrass; assay type: in vivo, Alopecurus myosuroides
Outline: as §1

[8] = system: smallflower flatsedge; experiment: Test B flood test smallflower flatsedge; assay type: in vivo, Cyperus difformis
Outline: (§2)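 Read-out is a visual response score from 0 (no effect) to 10 (complete control), assigned by comparison with untreated controls. Treatment was applied at the 2-leaf stage, and plants stayed in the greenhouse for twelve to sixteen days before scoring.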

[9] = system: rape; experiment: Test B pre/postemergence rape; assay type: in vivo, Brassica napus; conditions: for Plant response rating, Rape: scale of 0 to 10 where 0 is no effect and 10 is complete control
Outline: as §1

[10] = system: duck salad; experiment: Test B flood test duck salad; assay type: in vivo, Heteranthera limosa
Outline: as §2

[11] = system: rice; experiment: Test B flood test rice; assay type: in vivo, Oryza sativa
Outline: as §2

[12] = system: purple nutsedge; experiment: Test B pre/postemergence purple nutsedge; assay type: in vivo, Cyperus rotundus; conditions: for Plant response rating, Nutsedge: scale of 0 to 10 where 0 is no effect and 10 is complete control
Outline: as §1

[13] = system: wheat; experiment: Test B pre/postemergence wheat; assay type: in vivo, Triticum aestivum; conditions: for Plant response rating, Wheat: scale of 0 to 10 where 0 is no effect and 10 is complete control
Outline: as §1

[14] = system: corn; experiment: Test B pre/postemergence corn; assay type: in vivo, Zea mays
Outline: as §1

[15] = system: velvetleaf; experiment: Test B pre/postemergence velvetleaf; assay type: in vivo, Abutilon theophrasti; conditions: for Plant response rating, Velvetleaf: scale of 0 to 10 where 0 is no effect and 10 is complete control
Outline: as §1

[16] = system: crabgrass; experiment: Test B pre/postemergence crabgrass; assay type: in vivo, Digitaria sanguinalis
Outline: as §1

[17] = Postemergence, Rate 250 g/ha, scale 0 to 10
[18] = Preemergence, Rate 250 g/ha, scale 0 to 10, 0 is no effect, 10 is complete control
[19] = Preemergence, Rate 500 g/ha, scale 0 to 10, 0 is no effect, 10 is complete control
[20] = Rate 62 g/ha, Postemergence, scale 0 to 10, 0 no effect, 10 complete control
[21] = Rate 125 g/ha, Postemergence, scale 0 to 10, 0 is no effect, 10 is complete control
[22] = Postemergence, Rate 500 g/ha, scale of 0 to 10 where 0 is no effect and 10 is complete control
[23] = Preemergence, Rate 62 g/ha, scale of 0 to 10 where 0 is no effect and 10 is complete control
[24] = Preemergence, Rate 125 g/ha, scale of 0 to 10 where 0 is no effect and 10 is complete control
[25] = Rate 62 g/ha, flood test species, Pre-emergence, visual evaluation after twelve to sixteen days
[26] = Rate 125 g/ha, under heading Pre-emergence, flood test species, visual evaluation after twelve to sixteen days
[27] = Rate 250 g/ha, Pre-emergence (flood test species), scale 0 to 10, 0 is no effect, 10 is complete control
[28] = Rate 500 g/ha, Pre-emergence, flood test species, scale 0 to 10 (0 no effect, 10 complete control)

In the case of `CC(C)N(C(=O)n1oc(=O)n(C(C)C#N)c1=O)c1ccc(Cl)cc1` (centres unmarked) [Compound 451], the “Sugarbeets plant response rating” value [1, 17] is reported as 0, the “Plant response rating, Sugarbeets” value ([1]; Preemergence, Rate 62 g/ha) is reported as 0 and the “Plant response rating, Sugarbeets” value ([1]; Preemergence, Rate 125 g/ha) is reported as 0. For the same molecule, the “Sugarbeets plant response rating” value [1, 18] was 0, the “Sugarbeets plant response rating” value [1, 19] was 0 and the “Sugarbeets plant response rating” value [1, 20] was 0. The “Sugarbeets plant response rating” value [1, 21] was 0, the “Soybean plant response rating” value [2, 17] was 1 and the “Plant response rating, Soybean” value ([2]; Preemergence, Rate 62 g/ha) was 0. For the same molecule, the “Plant response rating, Soybean” value ([2]; Preemergence, Rate 125 g/ha) was 0, the “Soybean plant response rating” value [2, 18] was 0 and the “Soybean plant response rating” value [2, 19] was 0. For the same molecule, the “Soybean plant response rating” value [2, 20] was 0, the “Soybean plant response rating” value [2, 21] was 1 and the “Redroot pigweed plant response rating” value [3, 17] was 0. The “Plant response rating, Redroot pigweed” value ([3]; Preemergence, Rate 62 g/ha) was 0, the “Plant response rating, Redroot pigweed” value ([3]; Preemergence, Rate 125 g/ha) was 0 and the “Redroot pigweed plant response rating” value [3, 18] was 0. The “Redroot pigweed plant response rating” value [3, 19] was 0, the “Redroot pigweed plant response rating” value [3, 20] was 0 and the “Redroot pigweed plant response rating” value [3, 21] was 0. The “Wild oats plant response rating” value [4, 17] was 0, the “Plant response rating, Wild oats” value ([4]; Preemergence, Rate 62 g/ha) was 0 and the “Plant response rating, Wild oats” value ([4]; Preemergence, Rate 125 g/ha) was 0. For the same molecule, the “Wild oats plant response rating” value [4, 18] was 0, the “Wild oats plant response rating” value [4, 19] was 0 and the “Wild oats plant response rating” value [4, 20] was 0. For the same molecule, the “Wild oats plant response rating” value [4, 21] was 0, the “B. signalgrass plant response rating” value ([5]; Postemergence, Rate 250 g/ha, scale 0 to 10, 0 no effect, 10 complete control) was 0 and the “B. signalgrass plant response rating” value [5, 22] was 2. For the same molecule, the “Plant response rating, B. signalgrass” value [5, 23] was 0, the “Plant response rating, B. signalgrass” value [5, 24] was 0 and the “B. signalgrass plant response rating” value [5, 18] was 0. The “B. signalgrass plant response rating” value [5, 19] was 0, the “B. signalgrass plant response rating” value [5, 20] was 0 and the “B. signalgrass plant response rating” value [5, 21] was 0. The “Bedstraw plant response rating” value ([6]; Rate 62 g/ha, scale 0 to 10, 0 no effect, 10 complete control) was 0, the “Bedstraw plant response rating” value ([6]; Rate 125 g/ha, scale 0 to 10, 0 is no effect, 10 is complete control) was 0 and the “Blackgrass plant response rating” value [7, 17] was 2. For the same molecule, the “Blackgrass plant response rating” value [7, 22] was 6, the “Plant response rating, Blackgrass” value [7, 23] was 0 and the “Plant response rating, Blackgrass” value [7, 24] was 0. The “Blackgrass plant response rating” value [7, 18] was 0, the “Blackgrass plant response rating” value [7, 19] was 0 and the “Blackgrass plant response rating” value [7, 20] was 0. The “Blackgrass plant response rating” value [7, 21] was 0, the “Plant response rating, S. Flatsedge (0 to 10 scale, 0 is no effect, 10 is complete control)” value [8, 25] was 0 and the “S. Flatsedge plant response rating (0 to 10 scale, 0 is no effect, 10 is complete control)” value [8, 26] was 0. The “S. Flatsedge plant response rating” value [8, 27] was 0, the “S. Flatsedge plant response rating” value [8, 28] was 0 and the “Rape plant response rating” value [9, 17] was 0. The “Plant response rating, Rape” value ([9]; Preemergence, Rate 62 g/ha) was 0, the “Plant response rating, Rape” value ([9]; Preemergence, Rate 125 g/ha) was 0 and the “Rape plant response rating” value [9, 18] was 0. For the same molecule, the “Rape plant response rating” value [9, 19] was 0, the “Rape plant response rating” value [9, 20] was 0 and the “Rape plant response rating” value [9, 21] was 0. The “Plant response rating, Ducksalad (0 to 10 scale, 0 is no effect, 10 is complete control)” value [10, 25] was 0, the “Ducksalad plant response rating (0 to 10 scale, 0 is no effect, 10 is complete control)” value [10, 26] was 0 and the “Ducksalad plant response rating” value [10, 27] was 0. For the same molecule, the “Ducksalad plant response rating” value [10, 28] was 0, the “Plant response rating, Rice (0 to 10 scale, 0 is no effect, 10 is complete control)” value [11, 25] was 0 and the “Rice plant response rating (0 to 10 scale, 0 is no effect, 10 is complete control)” value [11, 26] was 0. For the same molecule, the “Rice plant response rating” value [11, 27] was 0, the “Rice plant response rating” value [11, 28] was 0 and the “Nutsedge plant response rating” value [12, 17] was 0. For the same molecule, the “Plant response rating, Nutsedge” value ([12]; Preemergence, Rate 62 g/ha) was 0, the “Plant response rating, Nutsedge” value ([12]; Preemergence, Rate 125 g/ha) was 0 and the “Nutsedge plant response rating” value [12, 19] was 0. For the same molecule, the “Nutsedge plant response rating” value [12, 20] was 0, the “Nutsedge plant response rating” value [12, 21] was 0 and the “Wheat plant response rating” value [13, 17] was 0. For the same molecule, the “Plant response rating, Wheat” value ([13]; Preemergence, Rate 62 g/ha) was 0, the “Plant response rating, Wheat” value ([13]; Preemergence, Rate 125 g/ha) was 0 and the “Wheat plant response rating” value [13, 18] was 0. The “Wheat plant response rating” value [13, 19] was 0, the “Wheat plant response rating” value [13, 20] was 0 and the “Wheat plant response rating” value [13, 21] was 0. The “Corn plant response rating” value [14, 17] was 0, the “Corn plant response rating” value [14, 22] was 0 and the “Plant response rating, Corn” value [14, 23] was 0. For the same molecule, the “Plant response rating, Corn” value [14, 24] was 0, the “Corn plant response rating” value [14, 18] was 0 and the “Corn plant response rating” value [14, 19] was 0. The “Corn plant response rating” value [14, 20] was 0, the “Corn plant response rating” value [14, 21] was 0 and the “Velvetleaf plant response rating” value [15, 17] was 0. The “Plant response rating, Velvetleaf” value ([15]; Preemergence, Rate 62 g/ha) was 0, the “Plant response rating, Velvetleaf” value ([15]; Preemergence, Rate 125 g/ha) was 0 and the “Velvetleaf plant response rating” value [15, 18] was 0. The “Velvetleaf plant response rating” value [15, 19] was 0, the “Velvetleaf plant response rating” value [15, 20] was 0 and the “Velvetleaf plant response rating” value [15, 21] was 0. The “Crabgrass plant response rating” value [16, 17] was 4, the “Crabgrass plant response rating” value [16, 22] was 6 and the “Plant response rating, Crabgrass” value [16, 23] was 0. The “Plant response rating, Crabgrass” value [16, 24] was 0, the “Crabgrass plant response rating” value [16, 18] was 1 and the “Crabgrass plant response rating” value [16, 19] was 7. For the same molecule, the “Crabgrass plant response rating” value [16, 20] was 0 and the “Crabgrass plant response rating” value [16, 21] was 0.
